Common to all, as to type: cell-based
Test [1] has as its target T1, human α1A adrenergic receptor (Homo sapiens, UniProt P35348).
T1 construct: expressed in transfected cells; host or cells: HEK293 cells, pcDNA3.1(−), hygromycin B selection
T1 sequence (P35348 1-466): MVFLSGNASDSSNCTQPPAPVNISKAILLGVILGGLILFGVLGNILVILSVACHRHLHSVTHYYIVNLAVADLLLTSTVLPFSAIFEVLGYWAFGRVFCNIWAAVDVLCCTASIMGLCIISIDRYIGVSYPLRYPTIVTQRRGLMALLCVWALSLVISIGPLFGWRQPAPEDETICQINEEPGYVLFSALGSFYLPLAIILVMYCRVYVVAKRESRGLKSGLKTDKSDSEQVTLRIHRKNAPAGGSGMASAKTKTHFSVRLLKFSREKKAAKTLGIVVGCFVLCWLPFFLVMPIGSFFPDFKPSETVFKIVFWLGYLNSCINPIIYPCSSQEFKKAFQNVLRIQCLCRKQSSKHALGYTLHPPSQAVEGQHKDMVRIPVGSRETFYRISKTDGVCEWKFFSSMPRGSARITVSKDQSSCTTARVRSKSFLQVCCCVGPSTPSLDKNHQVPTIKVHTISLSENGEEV
In words: Test Example 4: human α1A adrenergic receptor agonist activity (Ca flux, Fura-2, transfected HEK293 cells). Particulars: for Emax: HEK293, read-out: α1A receptor I.A. The method, then:
Measurement of Human α1A Adrenergic Receptor Agonist Activity
The measurement of human α1A adrenergic receptor agonist activity is carried out using HEK293 cells transfected with pcDNA3.1(−) (manufactured by Invitrogen, Inc.) to which human α1A gene has been inserted. These cells are cultured in DMEM medium containing 10% fetal bovine serum, 400 μg/ml hygromycin B (manufactured by Gibco BRL), 100 U/ml penicillin and 100 μg/ml streptomycin. […] The cells are loaded in a CO2 incubator for 30 minutes, and then are washed twice with the Assay Buffer to remove excess Fura-2AM. The cells are centrifuged, and then are prepared into a solution at 5×10^6 cells/ml with the Assay Buffer. Subsequently, the cells are dispensed on a 96-well plate (manufactured by Corning, Inc.) at a volume of 80 μl/well, and the plate is used as a cell plate. […] Subsequently, measurement of fluorescence intensity (excitation wavelength 340 nm and 380 nm, measurement wavelength 500 nm) is initiated at an interval of 2 seconds. After making measurements for about 30 seconds, 20 μl of the test sample from the sample plate is added to the cell plate, and measurements are further continued for 270 seconds. The Ca flux resulting from the test compound is calculated utilizing the difference between the maximum value of fluorescence intensity ratio at the wavelengths 340 nm and 380 nm after the addition of the test compound, and the fluorescence intensity ratio before the addition of the test compound, as the peak height.

For test [2], the target named is T2, human β3 adrenergic receptor (Homo sapiens, UniProt P13945).
T2 construct: the full length human β3 gene is obtained from a human genomic library; expressed in transfected cells; host or cells: CHO (Chinese Hamster Ovary) cells, pcDNA3, geneticin selection
The test can be described thus: Test Example 1-B: human β3 adrenergic receptor agonist activity (cAMP-Screen kit, transfected CHO cells, 96-well). Particulars: for Emax: CHO, read-out: β3 receptor I.A.; for EC50: Table 2, Test Example 1-B. The procedure:
Measurement of Human β3 Adrenergic Receptor Agonist Activity
(§1) The measurement of human β3 adrenergic receptor agonist activity is carried out using CHO (Chinese Hamster Ovary) cells transfected with pcDNA3 (manufactured by Invitrogen, Inc.) to which human β3 gene has been inserted. […] This human β3 cDNA fragment is used as a probe, and the full length human β3 gene is obtained from a human genomic library (manufactured by Clontech Laboratories, Inc.). The above cells are cultured in Ham's F-12 medium containing 10% fetal bovine serum and 400 μg/ml geneticin (manufactured by Invitrogen, Inc.). These cells are seeded on a 96-well plate to a concentration of 2×10^4 cells/well, and after being cultured for about 20 hours, the cells are left to stand in 80 μL of serum-free Ham's F-12 medium for 15 minutes. A test compound is initially dissolved in DMSO, and then is diluted stepwise with Ham's F-12 containing 100 mmol/L HEPES and 1 mmol/L isobutylmethylxanthine. 20 μL of the dilution is added to the cells. After the cells are cultured for 30 minutes, the medium is removed. 0.3. ml of the Assay/lysis Buffer included in cAMP-Screen kit (manufactured by Applied Biosystems, Inc.) is added to the cells, and the cells are incubated at 37° C. for 30 minutes. The resulting cell lysate is subjected to quantification of cAMP with the cAMP-Screen kit.

Test [3] addresses T3, human β1 adrenergic receptor (Homo sapiens, UniProt P08588).
T3 construct: expressed in transfected cells; host or cells: CHO (Chinese Hamster Ovary) cells, pcDNA3
The test can be described thus: Test Example 2-B: human β1 adrenergic receptor agonist activity (method of Test Example 1-B). Particulars: for β1 receptor EC50: Table 2, Test Example 2-B; for Emax: read-out: β1 receptor I.A. The procedure:
as §1, with “kit. […] Measurement of Human β1 Adrenergic Receptor Agonist Activity” for “kit.”

Test [4] has as its target T4, human β2 adrenergic receptor (Homo sapiens, UniProt P07550).
T4 construct: expressed in transfected cells; host or cells: CHO (Chinese Hamster Ovary) cells, pcDNA3
In words: Test Example 3-B: human β2 adrenergic receptor agonist activity (method of Test Example 1-B). Conditions: for β2 receptor EC50: Table 2, Test Example 3-B; for Emax: read-out: β2 receptor I.A. The method, then: [Worded in the source for another target; this target is reported under the same test.] as §1, with “kit. […] Measurement of Human β2 Adrenergic Receptor Agonist Activity” for “kit.”

[5] abbreviates: Table 2, Test Example 4, read-out: α1A receptor EC50.

Like-named read-outs stand apart in the source and are kept apart here. Some results are limits rather than exact numbers.

T2 sequence (P13945 whole entry): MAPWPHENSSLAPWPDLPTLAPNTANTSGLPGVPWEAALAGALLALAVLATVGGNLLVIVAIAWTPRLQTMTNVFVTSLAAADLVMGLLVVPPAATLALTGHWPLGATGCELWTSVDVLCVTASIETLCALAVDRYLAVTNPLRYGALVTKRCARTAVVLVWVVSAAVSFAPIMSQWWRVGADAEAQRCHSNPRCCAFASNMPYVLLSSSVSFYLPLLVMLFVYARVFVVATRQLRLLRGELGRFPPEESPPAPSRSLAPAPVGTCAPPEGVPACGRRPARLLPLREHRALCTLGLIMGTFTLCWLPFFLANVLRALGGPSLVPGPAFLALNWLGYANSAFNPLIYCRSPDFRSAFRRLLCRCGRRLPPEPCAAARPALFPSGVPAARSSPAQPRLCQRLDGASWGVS
T4 sequence (P07550 whole entry): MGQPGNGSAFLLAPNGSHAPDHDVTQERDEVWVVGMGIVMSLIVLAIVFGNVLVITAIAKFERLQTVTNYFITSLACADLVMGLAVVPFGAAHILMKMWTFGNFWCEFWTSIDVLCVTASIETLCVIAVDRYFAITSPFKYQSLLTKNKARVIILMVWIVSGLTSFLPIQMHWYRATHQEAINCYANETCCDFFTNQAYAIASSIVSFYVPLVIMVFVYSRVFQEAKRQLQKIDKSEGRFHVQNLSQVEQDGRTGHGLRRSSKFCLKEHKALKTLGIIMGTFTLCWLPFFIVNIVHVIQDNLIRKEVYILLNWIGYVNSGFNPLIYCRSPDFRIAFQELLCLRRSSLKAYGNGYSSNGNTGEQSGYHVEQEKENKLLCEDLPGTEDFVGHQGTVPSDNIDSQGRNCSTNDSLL
T3 sequence (P08588 whole entry): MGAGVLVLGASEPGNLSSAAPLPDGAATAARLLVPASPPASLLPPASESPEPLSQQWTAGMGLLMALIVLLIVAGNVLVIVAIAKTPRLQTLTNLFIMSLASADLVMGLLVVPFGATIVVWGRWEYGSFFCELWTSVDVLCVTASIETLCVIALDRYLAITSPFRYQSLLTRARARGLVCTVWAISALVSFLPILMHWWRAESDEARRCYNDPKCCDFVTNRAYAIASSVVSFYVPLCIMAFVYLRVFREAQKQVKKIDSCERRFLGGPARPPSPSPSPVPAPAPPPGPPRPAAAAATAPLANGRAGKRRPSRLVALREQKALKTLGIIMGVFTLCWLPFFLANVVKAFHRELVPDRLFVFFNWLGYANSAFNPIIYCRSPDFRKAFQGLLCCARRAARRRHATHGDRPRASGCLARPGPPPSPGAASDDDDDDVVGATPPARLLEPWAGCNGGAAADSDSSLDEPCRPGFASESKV

As for `CC(C)c1n[nH]c2cc(OCCNC[C@H](O)c3ccc(Cl)c(NS(C)(=O)=O)c3)ccc12` [Example 7, (R)-N-(2-chloro-5-(1-hydroxy-2-(2-(3-isopropylindazol-6-yloxy)ethylamino)ethyl)phenyl)methanesulfonamide], the Emax worked out at 0% in test [1], 65% in test [2], 22% in test [3] and 8% in test [4]. In addition, the figures for the EC50 in test [1] (setting [5]) and in test [2] were greater than 2000 nM and 13 nM, respectively. The “β1 receptor EC50” value in test [3] is “a)”. The “β2 receptor EC50” value in test [4] is on record as “a)”.
As to `CS(=O)(=O)Nc1cc([C@@H](O)CNCCOc2ccc3c(C(F)(F)F)n[nH]c3c2)ccc1F` [Example 10, (R)-N-(2-fluoro-5-(1-hydroxy-2-(2-(3-(trifluoromethyl)indazol-6-yloxy)ethylamino)ethyl)phenyl)methanesulfonamide], the Emax amounted to 15% in test [1], 53% in test [2], 8% in test [3] and 3% in test [4]. For the same compound, the EC50 was found to be 1290 nM in test [1] (setting [5]) and 41 nM in test [2]. In addition, in test [3], the “β1 receptor EC50” value is “a)”. In addition, the “β2 receptor EC50” value in test [4] was “a)”.
As to `Cc1n[nH]c2cc(OCCNC[C@H](O)c3cccc(NS(=O)(=O)C(C)C)c3)ccc12` [Example 12, (R)-N-(3-(1-hydroxy-2-(2-(3-methylindazol-6-yloxy)ethylamino)ethyl)phenyl)propane-2-sulfonamide], in test [1], the half-maximal effective concentration (EC50) was 1310 nM and the Emax turned out to be 34%. Besides, in test [2], the Emax was determined as 84% and a half-maximal effect (EC50) was put at 84 nM. In test [3], the “β1 receptor EC50” value is recorded as “b)” and the Emax was -1%. In test [4], the “β2 receptor EC50” value is reported as “a)” and the Emax is 2%.
Regarding `CCc1n[nH]c2cc(OCCNC[C@H](O)c3cccc(NS(=O)(=O)C(C)C)c3)ccc12` [Example 13, (R)-N-(3-(2-(2-(3-ethylindazol-6-yloxy)ethylamino)-1-hydroxyethyl)phenyl)propane-2-sulfonamide], the Emax was 20% in test [1], 80% in test [2], -2% in test [3] and -3% in test [4]. The EC50 was greater than 2000 nM in test [1] (setting [5]) and 47 nM in test [2]. Further, in test [3], the “β1 receptor EC50” value is listed as “b)”. Moreover, the “β2 receptor EC50” value in test [4] was “b)”.
In the case of `Cc1n[nH]c2cc(OCCNC[C@H](O)c3cccc(NS(=O)(=O)c4ccccc4)c3)ccc12` [Example 14, (R)-N-(3-(1-hydroxy-2-(2-(3-methylindazol-6-yloxy)ethylamino)ethyl)phenyl)benzenesulfonamide], in test [1], the EC50 is greater than 2000 nM and the Emax came to 0%. Also, in test [2], the Emax was found to be 90% and the EC50 came to 10 nM. Also, in test [3], the “β1 receptor EC50” value is reported as “a)” and the Emax was 16%. For the same compound, in test [4], the “β2 receptor EC50” value was “b)” and the Emax was determined as 0%.
As for `CCc1n[nH]c2cc(OCCNC[C@H](O)c3cccc(NS(=O)(=O)c4ccccc4)c3)ccc12` [Example 15, (R)-N-(3-(2-(2-(3-ethylindazol-6-yloxy)ethylamino)-1-hydroxyethyl)phenyl)benzenesulfonamide], the Emax in test [1] is 0%; in test [2] it was 80%; in test [3], 1%; in test [4], -3%. The EC50 in test [1] (setting [5]) was greater than 2000 nM; in test [2], 13 nM. Besides, in test [3], the “β1 receptor EC50” value is given as “a)”. For the same compound, the “β2 receptor EC50” value in test [4] was “b)”.
Turning to `CCc1n[nH]c2cc(OCCNC[C@H](O)c3cccc(NS(=O)(=O)CC)c3)ccc12` [Example 20, (R)-N-(3-(2-(2-(3-ethylindazol-6-yloxy)ethylamino)-1-hydroxyethyl)phenyl)ethanesulfonamide], the Emax in test [1] came to 26%; in test [2], 80%; in test [3], 3%; in test [4], 5%. Also, the EC50 in test [1] (setting [5]) stood at 488 nM; in test [2], 11 nM. The “β1 receptor EC50” value in test [3] was “a)”. The “β2 receptor EC50” value in test [4] is listed as “a)”.
For the compound `NC[C@H](O)c1ccc(O)c(O)c1` [Norepinephrine, reference compound], in test [1], the Emax worked out at 100%. Moreover, in test [1] (Table 2, maximum response to norepinephrine taken as 100%), the “α1A receptor I.A.” value is 100%.

In general, EC50 refers to the midpoint of the concentration-response curve.

These data come from US8008506B2, “Indazole compounds” (priority 2008, dated 2011).
